Laboratory results: publication PMC8036603, “Small Molecule Inhibitors of White Spot Syndrome Virus: Promise in Shrimp Seedling Culture” (International Journal of Molecular Sciences, 2021)

Columns and labels:
[1] = test system: Shrimp (L. vannamei) larvae; assay: Acute toxicity assay in shrimp larvae; format: in vivo, Litopenaeus vannamei; details: after 72 h of exposure
Method: Shrimp (L. vannamei) larvae (total length: 0.5 ± 0.04 cm, body weight: 4.2 ± 0.4 mg, mean ± SD) were provided by Zhejiang Mariculture Research Institute Qingjiang Station (Wenzhou, China). The larvae were maintained in a culture pond at 28 °C, fed four times a day with commercial feed pellets, and collected randomly for PCR testing to verify the WSSV-free status prior to the trial.
Acute toxicity of the coumarin derivatives was investigated by exposing larvae to a range of compound concentrations, from 0.1 mg/L to 100 mg/L of coumarin derivatives, where the dose setting was based on the data from preliminary tests in our laboratory. A DMSO-control (2%, v/v, the highest percentage of DMSO in treatments) served as the control. During the experiment, every 20 larvae were moved into six-well plates filled with 6 mL/per well freshly prepared test solutions for a 72-h incubation at 28 °C with a natural photoperiod. […] To avoid deterioration of water quality, dead shrimps were immediately removed at the point of observation. Three replicate experiments were performed.
Compound response curves were represented by a logistic sigmoidal function with a maximal effect level (Amax) and Hill coefficient representing the sigmoidal transition (Origin 8.1; http://www.originlab.com, accessed on 25 March 2021). Statistical analyses were performed using SPSS (version 18.0) statistical software (SPSS Inc., Chicago, IL, USA). The LC50 and EC50 values with 95% CIs were calculated using probit analysis. Virus titers were log10-transformed prior to statistical analyses. Unpaired Student’s t-tests were used to compare coumarin-treated samples and negative-control DMSO samples for determining significance and data are presented as mean values ± SD.

[2] = test system: white spot syndrome virus (WSSV); assay: Continuous immersion with compound exchange after WSSV infection; format: in vivo, Litopenaeus vannamei; details: for survival rate: 10 mg/L
Method: For continuous immersion with cultural medium exchange, the culture water in each well was replaced by C2/C7 or DMSO solution after WSSV infection (final viral titer of 1.6 × 10^5 copies/µL) for 24 h. Every 24 h, the shrimp were transformed into a new challenge well with fresh water and a fresh dose of C2/C7 or DMSO (0.2‰) for an additional 5 days. The survival shrimps were euthanized with MS-222 and frozen at −80 °C until processing. The survival of shrimp larvae and the copy number of viral genome in samples were described as above.

[3] = 60 h after exposure, larvae pre-infected 24 h, no exchange, untreated 0%
[4] = at 120 h, compound exchanged one to four times

Compound | signs of toxicity at the saturation concentration [1] | survival rate [2, 3] [%] | mortality with continuous immersion of compound exchange ([2]; at 120 h) [%] | survival rate [2, 4]
Cc1ccc(C2C(C#N)=C(N)Oc3c2c(=O)oc2ccccc32)cc1 (centres unmarked) [C2, 2-amino-5-oxo-4-(p-tolyl)-4H,5H-pyrano[3,2-c]chromene-3-carbonitrile] | No signs of toxicity were observed | 50 | 40 | more than 60%
2-amino-4-(4-chlorophenyl)-5-oxo-4H,5H-pyrano[3,2-c]chromene-3-carbonitrile [C7] | No signs of toxicity were observed | 50 | 40 | more than 60%
